Reference: patent US12263171B2, “7-, 8-, and 10-substituted amino triazolo quinazoline derivatives as adenosine receptor antagonists, pharmaceutical compositions and their use” (Merck Sharp & Dohme LLC, priority 2018, dated 2025)

Columns and labels:
[1] = target: human A2b adenosine receptor (Homo sapiens (Human), UniProt P29275); assay: A2B antagonism in cAMP cell-based assay (LANCE cAMP, HEK293 cells, 600 nM adenosine); details: for IC50: values marked *: cAMP cell-based assay; for *A2B cAMP % inh. @ 10000 nM: marked *
Sequence of human A2b adenosine receptor (P29275 whole entry): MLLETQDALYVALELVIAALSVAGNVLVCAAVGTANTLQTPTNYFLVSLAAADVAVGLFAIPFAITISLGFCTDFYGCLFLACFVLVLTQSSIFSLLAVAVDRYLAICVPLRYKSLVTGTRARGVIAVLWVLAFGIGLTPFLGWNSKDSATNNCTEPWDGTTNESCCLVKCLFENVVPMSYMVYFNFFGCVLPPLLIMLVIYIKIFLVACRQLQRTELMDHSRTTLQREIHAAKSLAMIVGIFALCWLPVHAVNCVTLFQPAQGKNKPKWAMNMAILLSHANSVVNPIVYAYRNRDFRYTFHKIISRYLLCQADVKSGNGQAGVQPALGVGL
Procedure: Measurement of A2A and A2B Antagonism in cAMP Cell-Based Assay
All subsequent liquid additions were performed using a multichannel pipettor. […] After this time 5 μL of either 300 nM or 600 nM adenosine (Sigma Cat. No. A9251) for A2A and A2B respectively was added and incubated for 30 minutes at 37° C. and 5% CO2 in a humidified environment. At this time detection mix was prepared by combining the LANCE Eu-W8044 labeled streptavidin and. Biotin-cAMP in detection buffer according to the manufacturers protocol. […] Curve fitting of the percent effect data versus the log of compound concentration used a 4-parameter concentration response curve fitting algorithm to calculate IC50 values.

[2] = target: human A2a adenosine receptor (Homo sapiens (Human), UniProt P29274); assay: A2a receptor affinity radioligand binding assay ([3H] SCH58261, membranes from HEK293 or CHO cells); details: unstarred values: radioligand binding
Sequence of human A2a adenosine receptor (P29274 whole entry): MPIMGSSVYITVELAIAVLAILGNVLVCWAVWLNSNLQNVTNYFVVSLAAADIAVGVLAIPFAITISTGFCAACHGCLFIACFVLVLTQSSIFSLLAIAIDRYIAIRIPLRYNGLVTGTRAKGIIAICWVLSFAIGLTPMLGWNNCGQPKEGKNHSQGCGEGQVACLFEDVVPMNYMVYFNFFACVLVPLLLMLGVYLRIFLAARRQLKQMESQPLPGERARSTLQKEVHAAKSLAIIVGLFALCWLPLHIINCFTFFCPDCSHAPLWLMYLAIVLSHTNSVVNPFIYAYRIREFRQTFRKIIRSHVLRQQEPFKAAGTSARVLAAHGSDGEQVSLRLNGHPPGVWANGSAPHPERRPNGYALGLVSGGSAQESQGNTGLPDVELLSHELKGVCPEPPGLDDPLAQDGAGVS
In short: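 Displacement of tritiated SCH58261 (working dilution 4 nM) from recombinant human A2a receptor membranes (HEK293 or CHO), 60 min at room temperature in Tris pH 7.4/MgCl2 buffer after 15–30 min compound preincubation. Scintillation counting after filtration; normalized percent effect fitted 4-parameter logistic for IC50.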

Row | Structure (SMILES) | IC50 [1] [nM] | IC50 [2] [nM] | *A2B cAMP % inh. @ 10000 nM [1] [% inh. @ 10000 nM*]
1 | COc1cccc2c1nc(N)n1nc([C@@H]3CCCN(c4cnn(C)c4C(F)(F)F)C3)nc21 [Example 2, (R)-7-methoxy-2-(1-(1-methyl-5-(trifluoromethyl)-1H-pyrazol-4-yl)piperidin-3-yl)-[1,2,4]triazolo[1,5-c]quinazolin-5-amine] | 763 | 1 | –
2 | COc1cccc2c1nc(N)n1nc([C@@H]3CCCN(c4cnn(C(F)F)c4)C3)nc21 [Example 3, (R)-2-(1-(1-(difluoromethyl)-1H-pyrazol-4-yl)piperidin-3-yl)-7-methoxy-[1,2,4]triazolo[1,5-c]quinazolin-5-amine] | 42.6 | 1.3 | –
3 | CCn1cc(N2CCC[C@@H](c3nc4c5cccc(OC)c5nc(N)n4n3)C2)cn1 [Example 4, (R)-2-(1-(1-ethyl-1H-pyrazol-4-yl)piperidin-3-yl)-7-methoxy-[1,2,4]triazolo[1,5-c]quinazolin-5-amine] | 49.5 | 1.4 | –
4 | COc1cccc2c1nc(N)n1nc([C@@H]3CCCN(c4cnn(C(C)C)c4)C3)nc21 [Example 5, (R)-2-(1-(1-isopropyl-1H-pyrazol-4-yl)piperidin-3-yl)-7-methoxy-[1,2,4]triazolo[1,5-c]quinazolin-5-amine] | 39.5 | 2.4 | –
5 | COc1cccc2c1nc(N)n1nc([C@@H]3CCCN(c4cnn(C(C)(C)C)c4)C3)nc21 [Example 6, (R)-2-(1-(1-(tert-butyl)-1H-pyrazol-4-yl)piperidin-3-yl)-7-methoxy-[1,2,4]triazolo[1,5-c]quinazolin-5-amine] | 30 | 1.3 | –
6 | COc1cccc2c1nc(N)n1nc([C@@H]3CCCN(c4cnn(C5CC5)c4)C3)nc21 [Example 7, (R)-2-(1-(1-cyclopropyl-1H-pyrazol-4-yl)piperidin-3-yl)-7-methoxy-[1,2,4]triazolo[1,5-c]quinazolin-5-amine] | 38.5 | 1.4 | –
7 | COc1cccc2c1nc(N)n1nc([C@@H]3CCCN(c4cnn(CC5CCC5)c4)C3)nc21 [Example 8, (R)-2-(1-(1-(cyclobutylmethyl)-1H-pyrazol-4-yl)piperidin-3-yl)-7-methoxy-[1,2,4]triazolo[1,5-c]quinazolin-5-amine] | 211 | 1.4 | –
8 | COc1cccc2c1nc(N)n1nc([C@@H]3CCCN(c4cnn(C)c4C)C3)nc21 [Example 10, (R)-2-(1-(1,5-dimethyl-1H-pyrazol-4-yl)pipiperidin-3-yl)-7-methoxy-[1,2,4]triazolo[1,5-c]quinazolin-5-amine] | 252 | 1.5 | –
9 | COc1cccc2c1nc(N)n1nc([C@@H]3CCCN(c4c(C)nn(C)c4C)C3)nc21 [Example 11, (R)-7-methoxy-2-(1-(1,3,5-trimethyl-1H-pyrazol-4-yl)piperidin-3-yl)-[1,2,4]triazolo[1,5-c]quinazolin-5-amine] | 3700 | 0.8 | –
10 | COc1cccc2c1nc(N)n1nc([C@@H]3CCCN(c4cnn5ncccc45)C3)nc21 [Example 12, (R)-7-methoxy-2-(1-(pyrazolo[1,5-b]pyridazin-3-yl)-piperidin-3-yl)-[1,2,4]triazolo[1,5-c]quinazolin-5-amine] | 104 | 0.6 | –
11 | COc1cccc2c1nc(N)n1nc([C@@H]3CCCN(c4cnn5c4CCC5)C3)nc21 [Example 13, (R)-2-(1-(5,6-dihydro-4H-pyrrolo[1,2-b]pyrazol-3-yl)piperidin-3-yl)-7-methoxy-[1,2,4]triazolo[1,5-c]quinazolin-5-amine] | 112 | 0.9 | –
12 | COc1cccc2c1nc(N)n1nc([C@@H]3CCCN(c4cnn(CCF)c4)C3)nc21 [Example 14, (R)-2-(1-(1-(2-fluoroethyl)-1H-pyrazol-4-yl)piperidin-3-yl)-7-methoxy-[1,2,4]triazolo[1,5-c]quinazolin-5-amine] | 31 | 0.7 | –
13 | CCn1ncc(N2CCC[C@@H](c3nc4c5cccc(OC)c5nc(N)n4n3)C2)c1C [Example 15, (R)-2-(1-(1-ethyl-5-methyl-1H-pyrazol-4-yl)piperidin-3-yl)-7-methoxy-[1,2,4]triazolo[1,5-c]quinazolin-5-amine] | 147 | 0.5 | –
14 | COc1cccc2c1nc(N)n1nc([C@@H]3CCCN(c4cnn(CC5CC5)c4)C3)nc21 [Example 16, (R)-2-(1-(1-(cyclopropylmethyl)-1H-pyrazol-4-yl)piperidin-3-yl)-7-methoxy-[1,2,4]triazolo[1,5-c]quinazolin-5-amine] | 92.8 | 0.8 | –
15 | COc1cccc2c1nc(N)n1nc([C@@H]3CCCN(c4cnn(C5CCC5)c4)C3)nc21 [Example 18, (R)-2-(1-(1-cyclobutyl-1H-pyrazol-4-yl)piperidin-3-yl)-7-methoxy-[1,2,4]triazolo[1,5-c]quinazolin-5-amine] | 46.4 | 1 | –
16 | COc1cccc2c1nc(N)n1nc([C@@H]3CCCN(c4cnn5c(C)cccc45)C3)nc21 [Example 19, (R)-7-methoxy-2-(1-(7-methylpyrazolo[1,5-a]pyridin-3-yl)piperidin-3-yl)-[1,2,4]triazolo[1,5-c]quinazolin-5-amine] | 70.9 | 1.3 | –
17 | COc1cccc2c1nc(N)n1nc([C@@H]3CCCN(c4cnn(CC(C)(C)OC)c4)C3)nc21 [Example 22, (R)-7-methoxy-2-(1-(1-(2-methoxy-2-methylpropyl)-1H-pyrazol-4-yl)piperidin-3-yl)-[1,2,4]triazolo[1,5-c]quinazolin-5-amine] | 102 | 1.6 | –
18 | COc1cccc2c1nc(N)n1nc([C@@H]3CCCN(c4cnn([C@@H]5CCC[C@H](O)[C@@]5(C)O)c4)C3)nc21 [Example 27, (1S,2S,6R)-6-(4-((R)-3-(5-amino-7-methoxy-[1,2,4]triazolo[1,5-c]quinazolin-2-yl)piperidin-1-yl)-1H-pyrazol-1-yl)-1-methylcyclohexane-1,2-diol] | 40.3 | 2 | –
19 | COc1cccc2c1nc(N)n1nc([C@@H]3CCCN(c4cnn(C(C)(C)C(=O)O)c4)C3)nc21 [Example 28, (R)-2-(4-(3-(5-amino-7-methoxy-[1,2,4]triazolo[1,5-c]quinazolin-2-yl)piperidin-1-yl)-1H-pyrazol-1-yl)-2-methylpropanoic acid] | 48.3 | 6.3 | –
20 | COc1cccc2c1nc(N)n1nc([C@@H]3CCCN(c4cnn([C@H]5CC[C@H](O)C5)c4)C3)nc21 [Example 29, (1S,3S)-3-(4-((R)-3-(5-amino-7-methoxy-[1,2,4]triazolo[1,5-c]quinazolin-2-yl)piperidin-1-yl)-1H-pyrazol-1-yl)cyclopentan-1-ol] | 24.7 | 1.3 | –
21 | COc1cccc2c1nc(N)n1nc([C@@H]3CCCN(c4cnn(C5CC6(COC6)C5)c4)C3)nc21 [Example 31, (R)-2-(1-(1-(2-oxaspiro[3.3]heptan-6-yl)-1H-pyrazol-4-yl)piperidin-3-yl)-7-methoxy-[1,2,4]triazolo[1,5-c]quinazolin-5-amine] | 1700 | 50.8 | –
22 | COc1cccc2c1nc(N)n1nc([C@@H]3CCCN(c4cnn(CC5(O)CCC5)c4C)C3)nc21 [Example 34, (R)-1-((4-(3-(5-amino-7-methoxy-[1,2,4]triazolo[1,5-c]quinazolin-2-yl)piperidin-1-yl)-5-methyl-1H-pyrazol-1-yl)methyl)cyclobutan-1-ol] | 219 | 1.6 | –

Next, values leading:

Row | IC50 [1] [nM] | IC50 [2] [nM] | *A2B cAMP % inh. @ 10000 nM [1] [% inh. @ 10000 nM*] | Structure (SMILES)
23 | 386 | 0.8 | – | COc1cccc2c1nc(N)n1nc(C3CN(c4cnn(C5CC5)c4)CC(F)(F)C3)nc21 (single isomer, unassigned) [Example 154A]
24 | – | 17.4 | 13 | COc1cccc2c1nc(N)n1nc(C3CN(c4cnn(C5CC5)c4)CC(F)(F)C3)nc21 (single isomer, unassigned) [Example 154B]
25 | 1330 | 12.1 | – | COc1cccc2c1nc(N)n1nc(C3CN(c4cnn(CC(F)(F)F)c4)CC(F)(F)C3)nc21 (single isomer, unassigned) [Example 155A]
26 | 301 | 0.7 | – | COc1cccc2c1nc(N)n1nc(C3CN(c4cnn(CC(F)(F)F)c4)CC(F)(F)C3)nc21 (single isomer, unassigned) [Example 155B]
27 | 1390 | 2.2 | – | COc1cccc2c1nc(N)n1nc(C3CN(c4cnn(CC(C)(C)O)c4)CC(F)(F)C3)nc21 (single isomer, unassigned) [Example 156B, (R or S)-1-(4-(5-(5-amino-7-methoxy-[1,2,4]triazolo[1,5-c]quinazolin-2-yl)-3,3-difluoropiperidin-1-yl)-1H-pyrazol-1-yl)-2-methylpropan-2-ol]
28 | 491 | 2.4 | – | CC[C@@H]1CC[C@H](c2nc3c4cccc(OC)c4nc(N)n3n2)CN1c1cnn(CC(C)(C)O)c1 (single isomer, unassigned) [Example 216D]
29 | – | 50.7 | 9 | COc1ccc2c(c1)nc(N)n1nc([C@H]3C[C@H](C(F)(F)F)CN(c4cnn(CC(C)(C)O)c4)C3)nc21 (single isomer, unassigned) [Example 218A, 1-(4-((3S,5S or 3R,5R)-3-(5-amino-8-methoxy-[1,2,4]triazolo[1,5-c]quinazolin-2-yl)-5-(trifluoromethyl)piperidin-1-yl)-1H-pyrazol-1-yl)-2-methylpropan-2-ol]
30 | 815 | 1.32 | – | COc1ccc2c(c1)nc(N)n1nc([C@@H]3C[C@H](C)CN(c4cnn(C(C)(C)CO)c4)C3)nc21 (single isomer, unassigned) [Example 222A]
